US5449612A, “Process for identifying candida by means of chromogenic substances” (Serbio, priority 1990, dated 1995)
Residues, ends and D or L forms follow the SMILES beside them. *: point of attachment. pNA = O=[N+]([O-])c1ccc(N*)cc1; Cbz = O=C(OCc1ccccc1)*

Tests used:
Candida albicans = assay: Tests on substrates against Candida albicans, colour reading on buffered gelose; type: cell-based; conditions: Table I; for Reading at 24 h: medium pH 6.0, YNB, glucose, agar, gentamycin, coloration or fluorescence
Candida tropicalis = assay: Tests on substrates against Candida tropicalis, colour reading on buffered gelose; type: cell-based; set-up: C. TROPICALIS reading at 48 h: key to the marks not given beside the values; conditions: for Reading at 24 h: Table II, medium pH 6.0, YNB, glucose, agar, gentamycin; for C. TROPICALIS reading at 24 h: Table III, medium pH 6.0
Candida krusei = assay: Tests on substrates against Candida krusei, colour reading on buffered gelose; on Reading at 24 h: key: -: none; +: weak; ++: moderate; +++: intense; ++++: very intense; type: cell-based; set-up: key to Specificity: interference with C. krusei: (a): interference with C. albicans (++++); (b): interference with C. krusei (++); (c): interference with C. tropicalis (++); conditions: for Reading at 24 h: Table IV, medium pH 6.0
T. glabrata [1] = assay: Tests on substrates against T. glabrata, colour reading on buffered gelose; on T. GLABRATA reading at 24 h: key: -: none; +: weak; ++: moderate; +++: intense; ++++: very intense; type: cell-based, Torulopsis glabrata; set-up: T. GLABRATA reading at 48 h: key: -: none; +: weak; ++: moderate; +++: intense; ++++: very intense; conditions: for T. GLABRATA reading at 24 h: Table III, medium pH 6.0
C. albicans = assay: Diagnosis from isolated colonies on gelose 2/5; type: cell-based, Candida albicans; conditions: Table VII; isolated colonies, 6 strains; gelose 2; further: key: -: none; +: weak; ++: moderate; +++: intense; ++++: very intense
C. tropicalis = assay: Diagnosis from isolated colonies on gelose 2/5; type: cell-based, Candida tropicalis; conditions: gelose 2
T. glabrata [2] = assay: Diagnosis from isolated colonies on gelose 2/5; type: cell-based, Torulopsis glabrata; conditions: Table VII; isolated colonies, 9 strains; gelose 2; further: key: -: none; +: weak; ++: moderate; +++: intense; ++++: very intense
C. krusei = assay: Diagnosis from isolated colonies on gelose 2/5; type: cell-based, Candida krusei; conditions: Table VII; isolated colonies, 6 strains; gelose 2
Description: According to the afore-mentioned best mode of carrying out the invention, a culture medium containing the following ingredients is prepared; it is called gelose 2 below and is buffered to pH 6.0.
According to the afore-mentioned best mode of carrying out the invention, a culture medium containing the following ingredients is prepared; it is called gelose 5 below and is buffered to pH 6.0.
Several isolated strains of C. albicans, C. tropicalis, C. krusei, C. guillermondii, C. pseudotropicalis, C. parapsilosis, C. zeylanoides, T. glabrata and Trichosporon cutaneum were inoculated and incubated on the media of Examples 1 to 5. […] Part of the results obtained has been collated in Table VI below, where the TTC column relates to results of tests undertaken separately on a standard gelose medium containing TTC.
Several isolated strains of C. albicans, C. tropicalis, C. krusei, C. guillermondii and T. glabrata were inoculated and incubated on the media of Example 2 [containing either the substrate N-Ac-β-D-galactosaminide-PNP of the prior art, or the substrates H-L-PropNA.AcOH (specific for C. albicans), EM-L-Phg-L-ArgpNA.AcOH (specific for T. glabrata) and H-Gly-L-Pro-L-Arg-pNA.2AcOH (specific for C. krusei)]and of Example 5 (containing the substrate H-L-Pro-pNA.AcOH).

Candida guillermondii = assay: Tests on substrates against Candida guillermondii; set-up: Reading at 24 h: key to the marks not given beside the values

CC(=O)O.O=C(Nc1ccc2cc(Br)ccc2c1)[C@@H]1CCCN1 [H-L-Pro-(6-Br)NA.AcOH, reference compound]
Specificity: nonspecific for the strains of Candida albicans (Candida albicans): (a) | Reading at 24 h (Candida albicans): +

N=C(N)NCCC[C@H](NC(=O)[C@@H]1CCCN1)C(=O)Nc1ccc([N+](=O)[O-])cc1 [H-L-Pro-L-Arg-pNA.2AcOH] (H-Pro-Arg-pNA)
Reading at 24 h (Candida tropicalis): ++

N=C(N)NCCC[C@H](NC(=O)[C@@H]1CCCN1C(=O)[C@@H]1CCCN1)C(=O)Nc1ccc([N+](=O)[O-])cc1 [H-L-Pro-L-Pro-L-Arg-pNA.2AcOH] (H-Pro-Pro-Arg-pNA)
Reading at 24 h (Candida albicans): +++ | Specificity: interference with C. tropicalis (Candida tropicalis; Table I): (b) | Reading at 24 h (Candida tropicalis): ++++ | Specificity: interference with C. tropicalis (Candida tropicalis; Table IV): (a) | Reading at 24 h (Candida krusei): -

CC(=O)O.O=C(Nc1ccc2ccccc2c1)[C@@H]1CCCN1 [H-L-Pro-NA.AcOH, reference compound]
Specificity: nonspecific for the strains of Candida albicans (Candida albicans): (a) | Reading at 24 h (Candida albicans): ++

CC(=O)O.COCCOCCOC(=O)NC(CCCN=C(N)N)C(=O)Nc1ccc([N+](=O)[O-])cc1 [MeO(CH2 CH2 O)2 CO-L-Arg-pNA.AcOH]
Reading at 24 h (Candida albicans): -

O=C(NCC(=O)N1CCC[C@H]1C(=O)Nc1ccc([N+](=O)[O-])cc1)OCc1ccccc1 [Z-Gly-L-Pro-pNA] (Cbz-Gly-Pro-pNA)
Reading at 24 h (Candida albicans): -

CC(=O)O.NCCCC[C@H](NC(=O)OCc1ccccc1)C(=O)Nc1ccc([N+](=O)[O-])cc1 [Z-L-Lys-pNA.AcOH]
Reading at 24 h (Candida albicans): -

Boc-L-Hyp-L-Pro-L-Arg-pNA.AcOH
C. TROPICALIS reading at 24 h (Candida tropicalis): + | T. GLABRATA reading at 24 h (T. glabrata [1]): -

BzNH-D-Ala-Gly-L-Arg-pNA.AcOH
C. TROPICALIS reading at 24 h (Candida tropicalis): ++ | T. GLABRATA reading at 24 h (T. glabrata [1]): -

BzNH-L-Ala-Gly-L-Arg-pNA.AcOH
C. TROPICALIS reading at 24 h (Candida tropicalis): +++ | T. GLABRATA reading at 24 h (T. glabrata [1]): -

EM-L-Hyp-L-Arg-pNA.AcOH
C. TROPICALIS reading at 48 h (Candida tropicalis; Table III footnotes): +++ | C. TROPICALIS reading at 24 h (Candida tropicalis): ++ | T. GLABRATA reading at 48 h (T. glabrata [1]; Table III footnotes): +++ | T. GLABRATA reading at 24 h (T. glabrata [1]): -

EM-L-Phg-L-Arg-pNA.AcOH
C. TROPICALIS reading at 24 h (Candida tropicalis): +++ | T. GLABRATA reading at 24 h (T. glabrata [1]): ++++ | Reading at t = 24 h (C. albicans): - | hydrolysis by the strains of C. tropicalis (C. tropicalis; Example 7, isolated strains): hydrolyzed | Reading at t = 24 h (C. tropicalis; Table VII, isolated colonies, 9 strains): ++ | Reading at t = 24 h (T. glabrata [2]): +++ | Reading at t = 24 h (C. krusei): -

H-D-Pro-L-Hyp-L-Arg-pNA.2AcOH
Reading at 24 h (Candida tropicalis): +++

H-L-Hyp-L-Arg-pNA.2AcOH
Reading at 24 h (Candida tropicalis): ++

H-L-Hyp-L-Hyp-L-Arg-pNA.2AcOH
Reading at 24 h (Candida tropicalis): +++

H-L-Hyp-L-Lys-pNA.2AcOH
Reading at 24 h (Candida tropicalis): ++

H-L-Hyp-L-Pro-L-Arg-pNA.2AcOH
Reading at 24 h (Candida tropicalis): +++

H-L-ONC-L-Arg-pNA.AcOH
Reading at 24 h (Candida krusei): ++ | Specificity: interference with C. krusei (Candida krusei; Table V): (b) | Specificity: interference with C. guillermondii (Candida guillermondii; Table IV): (e) | Reading at 24 h (Candida guillermondii; Table V): ++++

H-L-ONC-L-Pro-L-Arg-pNA.AcOH
Reading at 24 h (Candida tropicalis): +++

MM-L-Phg-L-Arg-pNA.AcOH
C. TROPICALIS reading at 24 h (Candida tropicalis): ++ | T. GLABRATA reading at 24 h (T. glabrata [1]): + +++

Z-L-Ala-L-Pro-pNA
Reading at 24 h (Candida albicans): -
